Laboratory results reported in US20230023802A1, “STABILIZED DRUG FORMULATIONS AND METHODS OF LOADING DRUG DELIVERY IMPLANTS” (THE METHODIST HOSPITAL SYSTEM, priority 2019, published 2023).
Counter-ions that a name gives are not always drawn. Like-named read-outs stand apart in the source and are kept apart here.

What was measured:
[1] = after 1 month, implant with 200 nm membrane in PBS sink, normalized to first time point
Experimental: Data are normalized to the values of day 1.
Urocanic acid was then tested. […] This formulation was loaded into an implant equipped with a 200 nm membrane. The implant was placed in 22 mL solution of PBS (the sink solution). The sink solution was replaced every 40 hours with fresh PBS. […] All results were normalized by the results of the first time point to compensate for the degradation that takes place in the sink solution.

[2] = physchem; conditions: pH 7.4
[3] = pH=5.3

## CC(C)OC(=O)[C@H](C)N[P@](=O)(CO[C@H](C)Cn1cnc2c(N)ncnc21)Oc1ccccc1 [tenofovir alafenamide fumarate]
[1]
  percentage of tenofovir alafenamide in the released mixture of tenofovir derivatives: 45%

## CC(C)OC(=O)[C@H](C)N[P@](=O)(CO[C@H](C)Cn1cnc2c(N)ncnc21)Oc1ccccc1 [tenofovir alafenamide]
[1]; listed as free base tenofovir alafenamide
  percentage of tenofovir alafenamide in the released mixture of tenofovir derivatives: 82%
[2]
  half-life: < 48 h
[3]
  hydrolysis half-life (t1/2): over 4 months
